Counter-ions that a name gives are not always drawn.

This is an account of results in patent publication US10085993B2, “Tablet formulation of 2-fluoro-N-methyl-4-[ 7-( quinolin-6-ylmethyl) imidazo [1,2-B] [1,2,4] triazin-2-yl] benzamide” (Novartis AG, priority 2014, dated 2018).

One data set is described as follows: Gelling behavior. The following applies: gelling can compromise tablet disintegration and dissolution rate. The data set is classed as physicochemical. The source says: 2-fluoro-N-methyl-4-[7-(quinolin-6-ylmethyl)imidazo[1,2-b][1,2,4]triazin-2-yl]benzamide dihydrochloride has a gelling behavior, mostly prominent at pHs above 3.5, which can compromise tablet disintegration and dissolution rate. Drug load and disintegrant type/levels can influence this behavior and need to be carefully selected to ensure adequate in vitro performance.

The nature of the next data set: Bulk density. The data set is classed as physicochemical. The source says: 2-fluoro-N-methyl-4-[7-(quinolin-6-ylmethyl)imidazo[1,2-b][1,2,4]triazin-2-yl]benzamide dihydrochloride has a very low bulk density (0.085 g/mL), which justifies the need of a densification step prior tabletting. Wet granulation was identified as the most suitable technology for this compound.

A short description of data set [1]: Solubility at different pH.

Turning to `CNC(=O)c1ccc(-c2cnc3ncc(Cc4ccc5ncccc5c4)n3n2)cc1F` [2-fluoro-N-methyl-4-[7-(quinolin-6-ylmethyl)imidazo[1,2-b][1,2,4]triazin-2-yl]benzamide dihydrochloride], the “pH at which gelling behavior is mostly prominent” value in “Gelling behavior” is on record as “above 3.5”. In the data set “Bulk density”, this molecule came in with a bulk density of 0.085 g/mL. In addition, the solubility is 7200 µg/mL in data set [1] (pH 1, simulated gastric fluid) and 79.3 µg/mL in data set [1] (pH 6.8, aqueous buffer).
